In publication PMC4360378 (Journal of Medicinal Chemistry, 2015):

Key:
yeast Rtt109–Vps75 = molecular target: T1, yeast Rtt109–Vps75 (Saccharomyces cerevisiae, UniProt Q07794); assay: [3H]-acetyl-CoA HAT assay, Rtt109; format: biochemical; conditions: 1 mM DTT; results similar versus Rtt109-Vps75, p300, and Gcn5
T1 sequence (Q07794 1-436): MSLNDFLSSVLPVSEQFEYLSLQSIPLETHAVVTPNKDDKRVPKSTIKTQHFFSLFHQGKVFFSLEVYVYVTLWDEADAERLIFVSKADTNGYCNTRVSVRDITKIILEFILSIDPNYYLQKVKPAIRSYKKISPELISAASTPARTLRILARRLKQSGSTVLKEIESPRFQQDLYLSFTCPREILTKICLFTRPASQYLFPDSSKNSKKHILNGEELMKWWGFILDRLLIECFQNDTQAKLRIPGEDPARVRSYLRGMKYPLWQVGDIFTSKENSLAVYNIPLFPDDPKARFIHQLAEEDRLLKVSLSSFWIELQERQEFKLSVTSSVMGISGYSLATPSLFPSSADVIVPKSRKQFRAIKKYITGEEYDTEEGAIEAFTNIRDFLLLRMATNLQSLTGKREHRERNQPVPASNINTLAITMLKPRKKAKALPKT
T1 sequence (P53853 1-264 partner): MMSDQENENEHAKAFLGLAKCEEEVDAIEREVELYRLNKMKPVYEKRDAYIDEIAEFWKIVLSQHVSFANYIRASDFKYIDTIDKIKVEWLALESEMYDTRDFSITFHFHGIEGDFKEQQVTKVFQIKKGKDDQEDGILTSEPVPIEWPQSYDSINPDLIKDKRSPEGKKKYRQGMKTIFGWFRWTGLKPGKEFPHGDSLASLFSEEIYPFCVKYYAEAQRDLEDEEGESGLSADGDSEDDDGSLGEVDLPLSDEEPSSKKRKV

human La antigen = molecular target: T2, human La antigen (Homo sapiens, UniProt P05455); assay: ALARM NMR; format: binding; conditions: for ALARM NMR reactivity: 200 μM test compounds, absence of DTT, prevented by 20 mM DTT; for La protein conformation in ALARM NMR: without the inclusion of DTT
T2 sequence (P05455 100-324): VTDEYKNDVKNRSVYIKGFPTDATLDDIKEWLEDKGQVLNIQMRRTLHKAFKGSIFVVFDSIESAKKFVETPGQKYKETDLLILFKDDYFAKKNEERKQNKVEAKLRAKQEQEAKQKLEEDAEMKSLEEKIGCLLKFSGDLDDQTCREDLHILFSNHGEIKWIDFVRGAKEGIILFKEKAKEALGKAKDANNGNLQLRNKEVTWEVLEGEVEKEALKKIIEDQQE

yeast Rtt109 = molecular target: T3, yeast Rtt109 (Saccharomyces cerevisiae, UniProt Q07794); assay: Protein mass spectrometry; format: binding; conditions: 100 μM compound, 10 μM protein, 30 °C, 60 min; LC–MS/MS
T3 sequence (Q07794 1-436): T1 sequence (Q07794 1-436)
T3 sequence (P53853 1-264 partner): T1 sequence (P53853 1-264 partner)

[1] = Stability in HTS buffer by UPLC–MS; format: physicochemical; conditions: HTS buffer pH 8.0, UPLC–MS
yeast Vps75 = molecular target: T4, yeast Vps75 (Saccharomyces cerevisiae, UniProt P53853); assay: Protein mass spectrometry; format: binding; conditions: 100 μM compound, 10 μM protein, 30 °C, 60 min; LC–MS/MS
T4 sequence (P53853 1-264): T1 sequence (P53853 1-264 partner)
T4 sequence (Q07794 1-436 partner): T1 sequence (Q07794 1-436)

SMILES	(+) DTT IC50 effect (yeast Rtt109–Vps75)	ALARM NMR reactivity (human La antigen)	also measured
O=[N+]([O-])c1c(Sc2nnnn2-c2ccccc2)cc(Cl)c2nonc12 [2e]	increase	–	–
CNc1nc(-c2ccccc2)[n+](-c2ccccc2)s1.[Cl-] [3a]	–	covalently modify cysteines	–
O=C1CC(Sc2nnc(-c3ccccc3O)o2)C(=O)N1c1ccc(Br)cc1 (stereo not shown) [4a]	increase	covalently modify cysteines	stability in HTS buffer [1]: thiol leaving groups (e.g., 4a″) were detected
O=S(=O)(Nc1cc(Sc2ncn[nH]2)c(O)c2ccccc12)c1ccc2ccccc2c1 [6b]	–	covalently modify cysteines	La protein conformation in ALARM NMR (human La antigen): strongly perturbed
O=C(O)CSc1cc(NS(=O)(=O)c2ccc(C(=O)O)cc2)c2ccccc2c1O [6c]	increase	–	–
O=C(O)CSc1cc(NS(=O)(=O)c2ccc(Br)cc2)c2ccccc2c1O [6y]	increase	–	–
CCN(CC)c1ccc2c(C)c(-c3ccc(N4C(=O)C=CC4=O)cc3)c(=O)oc2c1 [CPM, N-[4-(7-diethylamino-4-methylcoumarin-3-yl)phenyl]maleimide, reference compound]	increase	–	–
OC(Cn1cncn1)(Cn1cncn1)c1ccc(F)cc1F [fluconazole, reference compound]	none	–	–

Further lines, with some results ahead:

(+) DTT IC50 effect (yeast Rtt109–Vps75)	ALARM NMR reactivity (human La antigen)	SMILES	also measured
increase	covalently modify cysteines	O=C(O)c1ccc(-n2nnnc2SC2=CS(=O)(=O)c3ccccc32)cc1 [1a]	Peptide adduct detected, Rtt109 (yeast Rtt109): forms a detectable adduct with C94
increase	covalently modify cysteines	O=[N+]([O-])c1cc(Br)c2nsnc2c1Sc1ncnc2[nH]cnc12 [2a]	stability in HTS buffer [1]: stable
increase	covalently modify cysteines	O=C(O)CCSc1cc(NS(=O)(=O)c2ccc(Br)cc2)c2ccccc2c1O [6a]	La protein conformation in ALARM NMR (human La antigen): strongly perturbed; Peptide adduct detected, Vps75 (yeast Vps75): forms a detectable adduct with mono-oxidized C21
increase	–	O=S(=O)(Nc1cc(Cl)c(O)c2ccccc12)c1ccc(Br)cc1 [6e]	–
